Experimental data reported in PubChem BioAssay AID248 (DTP/NCI, 2004).
Where “and” joins values, the source holds several entries; their conditions need not be identical. Identical values can stand only once. Inconclusive results and toxic doses are left out. No stated cut-off is given here; in the data, active means T/C of 150% or more; inactive means T/C below 125%.

Test system: L1210 leukemia ip in BDF1 mice, survival T/C
Assay: NCI In Vivo Anticancer Drug Screen. Data for tumor model L1210 Leukemia (intraperitoneal) in B6D2F1 (BDF1) mice
Details: endpoint: mean survival time, higher = longer survival
In short: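 In this screen, tumor-bearing mice given compound are compared to those given vehicle, and their survival values are reported as a treated-to-control quotient.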

[1] = dose: 25.0 mg/kg/injection, schedule: Q04DX002 (ip), vehicle: Klucel (hydroxypropylcellulose) (HPC)
[2] = dose: 50.0 mg/kg/injection, schedule: Q04DX002 (ip), vehicle: Klucel (hydroxypropylcellulose) (HPC)
[3] = dose: 100.0 mg/kg/injection, schedule: Q04DX003 (ip), vehicle: Klucel (hydroxypropylcellulose) (HPC)
[4] = dose: 200.0 mg/kg/injection, schedule: Q04DX003 (ip), vehicle: Klucel (hydroxypropylcellulose) (HPC)
[5] = dose: 400.0 mg/kg/injection, schedule: Q04DX003 (ip), vehicle: Klucel (hydroxypropylcellulose) (HPC)
[6] = dose: 100.0 mg/kg/injection, schedule: Q04DX002 (ip), vehicle: Klucel (hydroxypropylcellulose) (HPC)

Measured: T/C

CCOC(=O)c1ccc(N(CCOS(C)(=O)=O)CCOS(C)(=O)=O)cc1
inactive: dose: 7.1 mg/kg/injection, schedule: Q01DX015 (ip), vehicle: saline 98 % of control | dose: 10.0 mg/kg/injection, schedule: Q01DX015 (ip), vehicle: saline 102 % of control | dose: 16.0 mg/kg/injection, schedule: Q01DX015 (ip), vehicle: saline 108 % of control | dose: 25.0 mg/kg/injection, schedule: Q01DX015 (ip), vehicle: saline 113 % of control | dose: 75.0 mg/kg/injection, schedule: Q01DX001 (ip), vehicle: saline 109 % of control | dose: 100.0 mg/kg/injection, schedule: Q01DX015 (ip), vehicle: saline 87 % of control | dose: 300.0 mg/kg/injection, schedule: Q01DX001 (ip), vehicle: saline 120 % of control | dose: 600.0 mg/kg/injection, schedule: Q01DX001 (ip), vehicle: saline 122 % of control | dose: 1000.0 mg/kg/injection, schedule: Q01DX001 (ip), vehicle: saline 116 % of control

CS(=O)(=O)O.[Cu+2]
inactive: dose: 5.0 mg/kg/injection, schedule: Q01DX001 (ip), vehicle: saline 93 % of control | dose: 10.0 mg/kg/injection, schedule: Q01DX001 (ip), vehicle: saline 96 % of control

O=C(COc1ccc(Cl)cc1Cl)Nc1ccc(NC(=O)COc2ccc(Cl)cc2Cl)cc1
inactive: dose: 12.5 mg/kg/injection, schedule: Q01DX009 (ip), vehicle: Klucel (hydroxypropylcellulose) (HPC) 87 % of control | dose: 12.5 mg/kg/injection, schedule: Q04DX002 (ip), vehicle: Klucel (hydroxypropylcellulose) (HPC) 95 % of control | dose: 25.0 mg/kg/injection, schedule: Q01DX009 (ip), vehicle: Klucel (hydroxypropylcellulose) (HPC) 94 % of control | [1] 95 % of control | dose: 50.0 mg/kg/injection, schedule: Q01DX009 (ip), vehicle: Klucel (hydroxypropylcellulose) (HPC) 87 % of control | [2] 92 % of control

NC1=NCN(c2ccc(Oc3ccc(S(=O)(=O)F)cc3)cc2)C(N)=N1
inactive: dose: 100.0 mg/kg/injection, schedule: Q01DX001 (ip), vehicle: Klucel (hydroxypropylcellulose) (HPC) 93 % of control | dose: 200.0 mg/kg/injection, schedule: Q01DX001 (ip), vehicle: Klucel (hydroxypropylcellulose) (HPC) 101 % of control | dose: 400.0 mg/kg/injection, schedule: Q01DX001 (ip), vehicle: Klucel (hydroxypropylcellulose) (HPC) 104 % of control

CC(=O)Nc1cc(Cl)cc2c1-c1c(Cl)cc(Cl)cc1C2=O
inactive: dose: 100.0 mg/kg/injection, schedule: Q01DX009 (ip), vehicle: saline 98 % of control | [3] 94 % of control | [4] 94 % of control | [5] 91 % of control

Cc1ccc(NC2CNC(=O)NC2=O)cc1 (stereo unspecified)
inactive: dose: 100.0 mg/kg/injection, schedule: Q01DX Z (ip), vehicle: methylcellulose (MC) 100 % of control | dose: 200.0 mg/kg/injection, schedule: Q01DX Z (ip), vehicle: methylcellulose (MC) 93 % of control

CCOC(=O)Nc1cc(Cl)c(N)c(NC(=O)OCC)n1
inactive: dose: 100.0 mg/kg/injection, schedule: Q01DX009 (ip), vehicle: saline with Tween-80 94 % of control | dose: 100.0 mg/kg/injection, schedule: Q04DX003 (ip), vehicle: saline with Tween-80 98 % of control | dose: 200.0 mg/kg/injection, schedule: Q01DX009 (ip), vehicle: saline with Tween-80 100 % of control | dose: 200.0 mg/kg/injection, schedule: Q04DX003 (ip), vehicle: saline with Tween-80 93 % of control | dose: 400.0 mg/kg/injection, schedule: Q01DX009 (ip), vehicle: saline with Tween-80 97 % of control | dose: 400.0 mg/kg/injection, schedule: Q04DX003 (ip), vehicle: saline with Tween-80 100 % of control

CN(C)NCCOC(c1ccccc1)c1ccccc1
inactive: [1] 102 % of control | [2] 106 % of control | [6] 95 % of control and 108 % of control

CN(C)CCCN1CCC2(CC1)NC(=O)NC2=O
inactive: dose: 100.0 mg/kg/injection, schedule: Q04DX002 (ip), vehicle: saline 103 % of control | dose: 200.0 mg/kg/injection, schedule: Q04DX002 (ip), vehicle: saline 103 % of control | dose: 400.0 mg/kg/injection, schedule: Q04DX002 (ip), vehicle: saline 103 % of control

Cc1ccc(NC(=O)NCCCO)cc1
inactive: dose: 50.0 mg/kg/injection, schedule: Q01DX001 (ip), vehicle: carboxymethylcellulose (CMC) 101 % of control | dose: 100.0 mg/kg/injection, schedule: Q01DX001 (ip), vehicle: carboxymethylcellulose (CMC) 101 % of control | dose: 200.0 mg/kg/injection, schedule: Q01DX001 (ip), vehicle: carboxymethylcellulose (CMC) 106 % of control | dose: 400.0 mg/kg/injection, schedule: Q01DX001 (ip), vehicle: carboxymethylcellulose (CMC) 104 % of control

CNC(=O)Oc1ccc(Nc2ccccc2)cc1
inactive: dose: 100.0 mg/kg/injection, schedule: Q01DX009 (ip), vehicle: Klucel (hydroxypropylcellulose) (HPC) 97 % of control and 104 % of control | [6] 105 % of control and 88 % of control | dose: 200.0 mg/kg/injection, schedule: Q01DX009 (ip), vehicle: Klucel (hydroxypropylcellulose) (HPC) 100 % of control and 104 % of control | dose: 200.0 mg/kg/injection, schedule: Q04DX002 (ip), vehicle: Klucel (hydroxypropylcellulose) (HPC) 97 % of control and 98 % of control | dose: 400.0 mg/kg/injection, schedule: Q01DX009 (ip), vehicle: Klucel (hydroxypropylcellulose) (HPC) 95 % of control and 104 % of control | dose: 400.0 mg/kg/injection, schedule: Q04DX002 (ip), vehicle: Klucel (hydroxypropylcellulose) (HPC) 93 % of control and 108 % of control

CCCCC(N)C(=O)O (stereo unspecified)
inactive: [3] 98 % of control | [4] 95 % of control | [5] 98 % of control
